According to PMC7689791 (Journal of Clinical Pharmacology, 2020):

Experiment: Observed incidence of treatment-emergent adverse events in clinical studies
Conditions: studies 202, 303, 304; 5 to 15 mg

For `Cc1ncc(OC[C@@]2(c3cccc(F)c3)C[C@H]2C(=O)Nc2ccc(F)cn2)c(C)n1` [Lemborexant], the “Flu/influenza frequency, active treatment” value was 4.0%.
